Laboratory results as given in ChEMBL document CHEMBL1133873, “Highly potent growth hormone secretagogues: hybrids of NN703 and ipamorelin” (Bioorg Med Chem Lett, 2001).
Where a SMILES comes first, the peptide text is derived from it. [ ]: non-standard residue; d: D form. d2Nal = N[C@H](Cc1ccc2ccccc2c1)C(=O)O; Aib = CC(C)(N)C(=O)O

Tests used:
Rattus norvegicus [1] = organism: Rattus norvegicus; experiment: Efficacy was determined as percent of GHRP-6 in rat pituitary cell assay tested in vitro; format: functional; settings: Pituitary gland cell
Sus scrofa [2] = experiment: Release of growth hormone at single iv dose of 50 nmol/kg in pigs; format: functional
Rattus norvegicus [3] = organism: Rattus norvegicus; experiment: Concentration required for GH release from isolated pituitary cells of rat tested in vitro; format: functional, cell-based; settings: Pituitary gland cell
Sus scrofa [4] = experiment: Effective dose required for release of GH from pigs in vivo; format: functional

Row | SMILES | Emax (Rattus norvegicus [1]) | GHmax (Sus scrofa [2]) | EC50 (Rattus norvegicus [3]) | ED50 (Sus scrofa [4])
1 | CN(C(=O)/C=C/CC(C)(C)N)[C@@H](Cc1ccc2ccccc2c1)C(=O)N(C)[C@@H](Cc1ccccc1)C(=O)NCCCCCN=C(N)N | 140% | 49 ng/mL | 17 nM | 
2 | CN(C)C(=O)[C@H](CCCCN)NC(=O)[C@H](Cc1ccccc1)N(C)C(=O)[C@H](Cc1ccc(-c2ccccc2)cc1)N(C)C(=O)/C=C/CC(C)(C)N | 110% | 116 ng/mL | 0.15 nM | 
3 | CN(C)C(=O)CN(C)C(=O)[C@H](Cc1ccccc1)N(C)C(=O)[C@H](Cc1ccc2ccccc2c1)N(C)C(=O)/C=C/CC(C)(C)N | 105% | 48 ng/mL | 10 nM | 
4 | CN(C(=O)/C=C/CC(C)(C)N)[C@@H](Cc1ccc(-c2ccccc2)cc1)C(=O)N(C)[C@@H](Cc1ccccc1)C(=O)NCCN | 90% | 62 ng/mL | 5 nM | 
5 | CN(C(=O)/C=C/CC(C)(C)N)[C@@H](Cc1ccc(-c2ccccc2)cc1)C(=O)N(C)[C@@H](Cc1ccccc1)C(=O)NCCCCN | 110% | 91 ng/mL | 1 nM | 
6 | CC(=O)NCCCCCNC(=O)[C@H](Cc1ccccc1)N(C)C(=O)[C@H](Cc1ccc2ccccc2c1)N(C)C(=O)/C=C/CC(C)(C)N | 110% | 26 ng/mL | 10 nM | 
7 | CC(C)(N)C(=O)N[C@H](COCc1ccccc1)C(=O)N1CCC2(CC1)CN(S(C)(=O)=O)c1ccccc12 [IBUTAMOREN] | 115% | 60 ng/mL | 0.6 nM | 0.084 µmol/kg
8 | CN(C)C(=O)CCCN(C)C(=O)[C@H](Cc1ccccc1)N(C)C(=O)[C@H](Cc1ccc2ccccc2c1)N(C)C(=O)/C=C/CC(C)(C)N | 105% | 21 ng/mL | 21 nM | 
9 | CN(C)CCCN(C)C(=O)[C@H](Cc1ccccc1)N(C)C(=O)[C@H](Cc1ccc(-c2ccccc2)cc1)N(C)C(=O)/C=C/CC(C)(C)N | 95% | 50 ng/mL | 4 nM | 
10 | CN(C(=O)/C=C/CC(C)(C)N)[C@@H](Cc1ccc2ccccc2c1)C(=O)N(C)[C@@H](Cc1ccccc1)C(=O)N[C@@H](CCCCN)C(N)=O | 105% | 76 ng/mL | 1.8 nM | 
11 | CN(C(=O)/C=C/CC(C)(C)N)[C@@H](Cc1ccc(-c2ccccc2)cc1)C(=O)N(C)[C@@H](Cc1ccccc1)C(=O)NCCCN | 130% | 25 ng/mL | 6 nM | 
12 | CN(C(=O)/C=C/CC(C)(C)N)[C@@H](Cc1ccc(-c2ccccc2)cc1)C(=O)N(C)[C@@H](Cc1ccccc1)C(=O)NCCCCCCN | 130% | 80 ng/mL | 1 nM | 
13 | CN(C)C(=O)[C@H](CCCCN)NC(=O)[C@H](Cc1ccccc1)N(C)C(=O)[C@H](Cc1ccc2ccccc2c1)N(C)C(=O)/C=C/CC(C)(C)N | 130% | 105 ng/mL | 0.3 nM | 
14 | CNC(=O)CCCN(C)C(=O)[C@H](Cc1ccccc1)N(C)C(=O)[C@H](Cc1ccc2ccccc2c1)N(C)C(=O)/C=C/CC(C)(C)N | 100% | 32 ng/mL | 30 nM | 
15 | CC(C)(N)C(=O)N[C@@H](Cc1c[nH]cn1)C(=O)N[C@H](Cc1ccc2ccccc2c1)C(=O)N[C@H](Cc1ccccc1)C(=O)N[C@@H](CCCCN)C(N)=O [IPAMORELIN] (H-[Aib]H[d2Nal][dF]K-NH2) | 85% | 54 ng/mL |  | 0.0023 µmol/kg
16 | CN(C)CCCN(C)C(=O)[C@H](Cc1ccccc1)N(C)C(=O)[C@H](Cc1ccc2ccccc2c1)N(C)C(=O)/C=C/CC(C)(C)N | 105% | 45 ng/mL | 2 nM | 
17 | CCNC(=O)NCCCCCNC(=O)[C@H](Cc1ccccc1)N(C)C(=O)[C@H](Cc1ccc2ccccc2c1)N(C)C(=O)/C=C/CC(C)(C)N | 95% | 8 ng/mL | 14 nM | 
